Test results as given in patent publication US8426202B2, “Cell culture medium” (Cellca GmbH, priority 2005, dated 2013).
Several values for one entry are separate records, joined by “and”; a condition that tells them apart may be missing. Identical values can stand only once.

Assays:
[1] = tested on: CHO cell line that expresses an antibody; experiment: Batch experiment with the substances according to the invention (Example 1); type: cell-based, Chinese hamster; details: batch mode, substance 0.5-1 g/l, basal medium glucose 4.7 g/l, glutamine […]
Method: Cells were stored in the gas phase of liquid nitrogen. One to two ampoules were thawed in nutrient medium preheated to 37° C. and transferred to spinner bottles, shaking flasks or T-bottles. In the first few days of cultivation the medium was changed, depending on the clone.
Depending on the clone, cells were split either every second day or every third day or after two and three days alternately into new medium, i.e. a portion of the cell suspension was removed from culture and a smaller portion of the cell suspension was reused as inoculum for the next culture. This inoculum was made up with fresh prewarmed nutrient medium. Cells were incubated at 37° C. in an incubator with a CO2 atmosphere. An alternative for incubating cells was cultivation in an incubation chamber at 37° C., in this way cells were held in culture for several passages. A passage means a cultivation time of two to three days. At various points of time, cell suspension was taken from strain maintenance and used as inoculum for experiments. The experiments were carried out in various cultivation systems, for example in spinner bottles, T-bottles, shaking flasks, culture tubes or in controlled bioreactors.
(§1) Feed took place at regular intervals.

[2] = tested on: CHO cell line that expresses an antibody; experiment: Fed-batch experiment with the substances according to the invention (Example 2, Table 2); type: cell-based, Chinese hamster; set-up: Viabil.: concentration or dose not given beside the values
Excerpt: as §1

O=C([O-])/C=C/C(=O)[O-].[Na+].[Na+] [Sodium fumarate]
Gln ([1]; day 0): 1.53 mM
Glucose ([1]; day 0): 4.69 g/L
Lactate ([1]; day 0): 0 g/L
NH4 ([1]; day 0): 1.22 mM
Specific Glutamin consumption (Gln/VCD) ([1]; day 0): 1.49
Specific ammonia production (NH4/VCD) ([1]; day 0): 1.18
Specific glucose consumption (Gluc/VCD) ([1]; day 0): 4.55
Specific lactate production (Lac/VCD) ([1]; day 0): 0.00
Total Cell Density TCD ([1]; day 0): 1.07 E5/ml
Viabil. ([1]; day 0): 96%
Viable Cell Density (VCD) ([1]; day 0): 1.03 E5/ml
Gln ([1]; day 3): 0.72 mM
Glucose ([1]; day 3): 3.98 g/L
Lactate ([1]; day 3): 0.85 g/L
NH4 ([1]; day 3): 1.84 mM
Specific Glutamin consumption (Gln/VCD) ([1]; day 3): 0.10
Specific ammonia production (NH4/VCD) ([1]; day 3): 0.26
Specific glucose consumption (Gluc/VCD) ([1]; day 3): 0.57
Specific lactate production (Lac/VCD) ([1]; day 3): 0.12
Total Cell Density TCD ([1]; day 3): 7.1 E5/ml
Viabil. ([1]; day 3): 99%
Viable Cell Density (VCD) ([1]; day 3): 7 E5/ml
Gln ([1]; day 6): 0.24 mM
Glucose ([1]; day 6): 2.61 g/L
Lactate ([1]; day 6): 1.19 g/L
NH4 ([1]; day 6): 2.49 mM
Specific Glutamin consumption (Gln/VCD) ([1]; day 6): 0.01
Specific ammonia production (NH4/VCD) ([1]; day 6): 0.06
Specific glucose consumption (Gluc/VCD) ([1]; day 6): 0.06
Specific lactate production (Lac/VCD) ([1]; day 6): 0.03
Total Cell Density TCD ([1]; day 6): 41.5 E5/ml
Viabil. ([1]; day 6): 98%
Viable Cell Density (VCD) ([1]; day 6): 40.6 E5/ml
Gln ([1]; day 8): 0.37 mM
Glucose ([1]; day 8): 1.68 g/L
Lactate ([1]; day 8): 1.08 g/L
NH4 ([1]; day 8): 2.58 mM
Specific Glutamin consumption (Gln/VCD) ([1]; day 8): 0.02
Specific ammonia production (NH4/VCD) ([1]; day 8): 0.14
Specific glucose consumption (Gluc/VCD) ([1]; day 8): 0.09
Specific lactate production (Lac/VCD) ([1]; day 8): 0.06
Total Cell Density TCD ([1]; day 8): 22.3 E5/ml
Viabil. ([1]; day 8): 86%
Viable Cell Density (VCD) ([1]; day 8): 19.1 E5/ml
Gln ([1]; day 11): 0.47 mM
Glucose ([1]; day 11): 0.46 g/L
Lactate ([1]; day 11): 1.46 g/L
NH4 ([1]; day 11): 3.06 mM
Specific Glutamin consumption (Gln/VCD) ([1]; day 11): 0.03
Specific ammonia production (NH4/VCD) ([1]; day 11): 0.21
Specific glucose consumption (Gluc/VCD) ([1]; day 11): 0.03
Specific lactate production (Lac/VCD) ([1]; day 11): 0.10
Total Cell Density TCD ([1]; day 11): 26.2 E5/ml
Viabil. ([1]; day 11): 55%
Viable Cell Density (VCD) ([1]; day 11): 14.3 E5/ml
Total Cell Density TCD ([2]; day 0, fed-batch): 1.5 E5/ml
Viabil. ([2]; day 0, fed-batch): 91%
Viable Cell Density (VCD) ([2]; day 0, fed-batch): 1.37 E5/ml
Total Cell Density TCD ([2]; day 2, fed-batch): 3.6 E5/ml
Viabil. ([2]; day 2, fed-batch): 97%
Viable Cell Density (VCD) ([2]; day 2, fed-batch): 3.5 E5/ml
Total Cell Density TCD ([2]; day 5, fed-batch): 13.9 E5/ml and 13.2 E5/ml
Viabil. ([2]; day 5, fed-batch): 96% and 97%
Viable Cell Density (VCD) ([2]; day 5, fed-batch): 13.4 E5/ml and 12.8 E5/ml
Total Cell Density TCD ([2]; day 8, fed-batch): 43.9 E5/ml and 43.8 E5/ml
Viabil. ([2]; day 8, fed-batch): 92%
Viable Cell Density (VCD) ([2]; day 8, fed-batch): 40.3 E5/ml and 40.2 E5/ml

CC(=O)C(=O)[O-].[Na+] [Sodium pyruvate]
Gln ([1]; day 0): 1.53 mM
Glucose ([1]; day 0): 4.69 g/L
Lactate ([1]; day 0): 0 g/L
NH4 ([1]; day 0): 1.22 mM
Specific Glutamin consumption (Gln/VCD) ([1]; day 0): 1.49
Specific ammonia production (NH4/VCD) ([1]; day 0): 1.18
Specific glucose consumption (Gluc/VCD) ([1]; day 0): 4.55
Specific lactate production (Lac/VCD) ([1]; day 0): 0.00
Total Cell Density TCD ([1]; day 0): 1.07 E5/ml
Viabil. ([1]; day 0): 96%
Viable Cell Density (VCD) ([1]; day 0): 1.03 E5/ml
Gln ([1]; day 3): 1.02 mM
Glucose ([1]; day 3): 4.55 g/L
Lactate ([1]; day 3): 0.38 g/L
NH4 ([1]; day 3): 1.72 mM
Specific Glutamin consumption (Gln/VCD) ([1]; day 3): 0.13
Specific ammonia production (NH4/VCD) ([1]; day 3): 0.22
Specific glucose consumption (Gluc/VCD) ([1]; day 3): 0.59
Specific lactate production (Lac/VCD) ([1]; day 3): 0.05
Total Cell Density TCD ([1]; day 3): 7.8 E5/ml
Viabil. ([1]; day 3): 99%
Viable Cell Density (VCD) ([1]; day 3): 7.7 E5/ml
Gln ([1]; day 6): 0.25 mM
Glucose ([1]; day 6): 2.81 g/L
Lactate ([1]; day 6): 1.32 g/L
NH4 ([1]; day 6): 1.91 mM
Specific Glutamin consumption (Gln/VCD) ([1]; day 6): 0.01
Specific ammonia production (NH4/VCD) ([1]; day 6): 0.04
Specific glucose consumption (Gluc/VCD) ([1]; day 6): 0.06
Specific lactate production (Lac/VCD) ([1]; day 6): 0.03
Total Cell Density TCD ([1]; day 6): 45 E5/ml
Viabil. ([1]; day 6): 98%
Viable Cell Density (VCD) ([1]; day 6): 44 E5/ml
Gln ([1]; day 8): 0.38 mM
Glucose ([1]; day 8): 1.79 g/L
Lactate ([1]; day 8): 1.34 g/L
NH4 ([1]; day 8): 2.23 mM
Specific Glutamin consumption (Gln/VCD) ([1]; day 8): 0.02
Specific ammonia production (NH4/VCD) ([1]; day 8): 0.10
Specific glucose consumption (Gluc/VCD) ([1]; day 8): 0.08
Specific lactate production (Lac/VCD) ([1]; day 8): 0.06
Total Cell Density TCD ([1]; day 8): 24.5 E5/ml
Viabil. ([1]; day 8): 88%
Viable Cell Density (VCD) ([1]; day 8): 21.6 E5/ml
Gln ([1]; day 11): 0.49 mM
Glucose ([1]; day 11): 0.63 g/L
Lactate ([1]; day 11): 1.93 g/L
NH4 ([1]; day 11): 3.06 mM
Specific Glutamin consumption (Gln/VCD) ([1]; day 11): 0.05
Specific ammonia production (NH4/VCD) ([1]; day 11): 0.30
Specific glucose consumption (Gluc/VCD) ([1]; day 11): 0.06
Specific lactate production (Lac/VCD) ([1]; day 11): 0.19
Total Cell Density TCD ([1]; day 11): 24.2 E5/ml
Viabil. ([1]; day 11): 43%
Viable Cell Density (VCD) ([1]; day 11): 10.3 E5/ml
Total Cell Density TCD ([2]; day 0, fed-batch): 1.5 E5/ml
Viabil. ([2]; day 0, fed-batch): 91%
Viable Cell Density (VCD) ([2]; day 0, fed-batch): 1.37 E5/ml
Total Cell Density TCD ([2]; day 2, fed-batch): 3.2 E5/ml
Viabil. ([2]; day 2, fed-batch): 97%
Viable Cell Density (VCD) ([2]; day 2, fed-batch): 3.1 E5/ml
Total Cell Density TCD ([2]; day 5, fed-batch): 13.7 E5/ml
Viabil. ([2]; day 5, fed-batch): 99%
Viable Cell Density (VCD) ([2]; day 5, fed-batch): 13.5 E5/ml
Total Cell Density TCD ([2]; day 8, fed-batch): 46 E5/ml
Viabil. ([2]; day 8, fed-batch): 90%
Viable Cell Density (VCD) ([2]; day 8, fed-batch): 41.5 E5/ml

O=C(O)C(O)C(O)C(=O)O (stereo not drawn) [Tartaric acid]
Gln ([1]; day 0): 1.53 mM
Glucose ([1]; day 0): 4.69 g/L
Lactate ([1]; day 0): 0 g/L
NH4 ([1]; day 0): 1.22 mM
Specific Glutamin consumption (Gln/VCD) ([1]; day 0): 1.49
Specific ammonia production (NH4/VCD) ([1]; day 0): 1.18
Specific glucose consumption (Gluc/VCD) ([1]; day 0): 4.55
Specific lactate production (Lac/VCD) ([1]; day 0): 0.00
Total Cell Density TCD ([1]; day 0): 1.07 E5/ml
Viabil. ([1]; day 0): 96%
Viable Cell Density (VCD) ([1]; day 0): 1.03 E5/ml
Gln ([1]; day 3): 0.9 mM
Glucose ([1]; day 3): 4.53 g/L
Lactate ([1]; day 3): 0.41 g/L
NH4 ([1]; day 3): 1.84 mM
Specific Glutamin consumption (Gln/VCD) ([1]; day 3): 0.17
Specific ammonia production (NH4/VCD) ([1]; day 3): 0.34
Specific glucose consumption (Gluc/VCD) ([1]; day 3): 0.84
Specific lactate production (Lac/VCD) ([1]; day 3): 0.08
Total Cell Density TCD ([1]; day 3): 5.5 E5/ml
Viabil. ([1]; day 3): 98%
Viable Cell Density (VCD) ([1]; day 3): 5.4 E5/ml
Gln ([1]; day 6): 0.19 mM
Glucose ([1]; day 6): 3.56 g/L
Lactate ([1]; day 6): 0.6 g/L
NH4 ([1]; day 6): 2.89 mM
Specific Glutamin consumption (Gln/VCD) ([1]; day 6): 0.00
Specific ammonia production (NH4/VCD) ([1]; day 6): 0.07
Specific glucose consumption (Gluc/VCD) ([1]; day 6): 0.09
Specific lactate production (Lac/VCD) ([1]; day 6): 0.02
Total Cell Density TCD ([1]; day 6): 41.3 E5/ml
Viabil. ([1]; day 6): 97%
Viable Cell Density (VCD) ([1]; day 6): 40 E5/ml
Gln ([1]; day 8): 0.27 mM
Glucose ([1]; day 8): 2.65 g/L
Lactate ([1]; day 8): 0.64 g/L
NH4 ([1]; day 8): 3.42 mM
Specific Glutamin consumption (Gln/VCD) ([1]; day 8): 0.03
Specific ammonia production (NH4/VCD) ([1]; day 8): 0.33
Specific glucose consumption (Gluc/VCD) ([1]; day 8): 0.25
Specific lactate production (Lac/VCD) ([1]; day 8): 0.06
Total Cell Density TCD ([1]; day 8): 12.1 E5/ml
Viabil. ([1]; day 8): 87%
Viable Cell Density (VCD) ([1]; day 8): 10.5 E5/ml
Gln ([1]; day 11): 0.42 mM
Glucose ([1]; day 11): 1.71 g/L
Lactate ([1]; day 11): 0.79 g/L
NH4 ([1]; day 11): 3.87 mM
Specific Glutamin consumption (Gln/VCD) ([1]; day 11): 0.05
Specific ammonia production (NH4/VCD) ([1]; day 11): 0.44
Specific glucose consumption (Gluc/VCD) ([1]; day 11): 0.20
Specific lactate production (Lac/VCD) ([1]; day 11): 0.09
Total Cell Density TCD ([1]; day 11): 18 E5/ml
Viabil. ([1]; day 11): 48%
Viable Cell Density (VCD) ([1]; day 11): 8.7 E5/ml
Total Cell Density TCD ([2]; day 0, fed-batch): 1.5 E5/ml
Viabil. ([2]; day 0, fed-batch): 91%
Viable Cell Density (VCD) ([2]; day 0, fed-batch): 1.37 E5/ml
Total Cell Density TCD ([2]; day 2, fed-batch): 4 E5/ml and 3.9 E5/ml
Viabil. ([2]; day 2, fed-batch): 98% and 97%
Viable Cell Density (VCD) ([2]; day 2, fed-batch): 3.9 E5/ml and 3.8 E5/ml
Total Cell Density TCD ([2]; day 5, fed-batch): 10.4 E5/ml and 9.6 E5/ml
Viabil. ([2]; day 5, fed-batch): 93% and 95%
Viable Cell Density (VCD) ([2]; day 5, fed-batch): 9.7 E5/ml and 9.1 E5/ml
Total Cell Density TCD ([2]; day 8, fed-batch): 26.6 E5/ml and 27.7 E5/ml
Viabil. ([2]; day 8, fed-batch): 89% and 90%
Viable Cell Density (VCD) ([2]; day 8, fed-batch): 23.7 E5/ml and 25 E5/ml
